Data as given in the supplement of paper PMC11451515.

Test system: SEM cells
Assay: cell viability relative to DMSO control; higher = less cytotoxic
Conditions: 48 h
How it was run: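 Viability is expressed as a percentage of DMSO wells within each plate, and cell-free wells serve as background. Seeding densities in the 1536-well plates (5 μl) were 500 cells/well for NOMO1 or SEM leukemia cells and 1000 cells/well for P12-Ichikawa. Each line was adapted for at least four passages in each medium. Library compounds in DMSO were pin-dosed at 47 μM to 0.79 nM (11 points, threefold), and CellTiter-Glo One luminescence was read after 48 h at 37°C.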

[1] = HPLM + 10% dialyzed FBS, 0.000781 µM
[2] = HPLM + 10% dialyzed FBS, 0.00234 µM
[3] = HPLM + 10% dialyzed FBS, 0.00702 µM
[4] = HPLM + 10% dialyzed FBS, 0.0211 µM
[5] = HPLM + 10% dialyzed FBS, 0.0632 µM
[6] = HPLM + 10% dialyzed FBS, 0.19 µM
[7] = HPLM + 10% dialyzed FBS, 0.569 µM
[8] = HPLM + 10% dialyzed FBS, 1.71 µM
[9] = HPLM + 10% dialyzed FBS, 5.12 µM
[10] = HPLM + 10% dialyzed FBS, 15.4 µM
[11] = HPLM + 10% dialyzed FBS, 46.1 µM
[12] = RPMI 5 mM glucose + 10% FBS, 0.000781 µM
[13] = RPMI 5 mM glucose + 10% FBS, 0.00234 µM
[14] = RPMI 5 mM glucose + 10% FBS, 0.00702 µM
[15] = RPMI 5 mM glucose + 10% FBS, 0.0211 µM
[16] = RPMI 5 mM glucose + 10% FBS, 0.0632 µM
[17] = RPMI 5 mM glucose + 10% FBS, 0.19 µM
[18] = RPMI 5 mM glucose + 10% FBS, 0.569 µM
[19] = RPMI 5 mM glucose + 10% FBS, 1.71 µM
[20] = RPMI 5 mM glucose + 10% FBS, 5.12 µM
[21] = RPMI 5 mM glucose + 10% FBS, 15.4 µM
[22] = RPMI 5 mM glucose + 10% FBS, 46.1 µM
[23] = RPMI 5 mM glucose + 10% dialyzed FBS, 0.000781 µM
[24] = RPMI 5 mM glucose + 10% dialyzed FBS, 0.00234 µM
[25] = RPMI 5 mM glucose + 10% dialyzed FBS, 0.00702 µM
[26] = RPMI 5 mM glucose + 10% dialyzed FBS, 0.0211 µM
[27] = RPMI 5 mM glucose + 10% dialyzed FBS, 0.0632 µM
[28] = RPMI 5 mM glucose + 10% dialyzed FBS, 0.19 µM
[29] = RPMI 5 mM glucose + 10% dialyzed FBS, 0.569 µM
[30] = RPMI 5 mM glucose + 10% dialyzed FBS, 1.71 µM
[31] = RPMI 5 mM glucose + 10% dialyzed FBS, 5.12 µM
[32] = RPMI 5 mM glucose + 10% dialyzed FBS, 15.4 µM
[33] = RPMI 5 mM glucose + 10% dialyzed FBS, 46.1 µM

| SMILES | cell viability [1] [%] | cell viability [2] [%] | cell viability [3] [%] | cell viability [4] [%] | cell viability [5] [%] | cell viability [6] [%] | cell viability [7] [%] | cell viability [8] [%] | cell viability [9] [%] | cell viability [10] [%] | cell viability [11] [%] | cell viability [12] [%] | cell viability [13] [%] | cell viability [14] [%] | cell viability [15] [%] | cell viability [16] [%] | cell viability [17] [%] | cell viability [18] [%] | cell viability [19] [%] | cell viability [20] [%] | cell viability [21] [%] | cell viability [22] [%] | cell viability [23] [%] | cell viability [24] [%] | cell viability [25] [%] | cell viability [26] [%] | cell viability [27] [%] | cell viability [28] [%] | cell viability [29] [%] | cell viability [30] [%] | cell viability [31] [%] | cell viability [32] [%] | cell viability [33] [%] |
| --- | --- | --- | --- | --- | --- | --- | --- | --- | --- | --- | --- | --- | --- | --- | --- | --- | --- | --- | --- | --- | --- | --- | --- | --- | --- | --- | --- | --- | --- | --- | --- | --- | --- |
| CC/C(=C(/c1ccc(O)cc1)c1ccc(OCCNC)cc1)c1ccccc1 | 61.4 | 99.5 | 91.2 | 102 | 103 | 115 | 101 | 96.7 | 65.6 | 59.5 | 26.1 | 66.8 | 102 | 108 | 112 | 107 | 109 | 102 | 94.8 | 65.7 | 47.8 | 25.9 | 53.5 | 106 | 88.3 | 104 | 95.8 | 123 | 97.6 | 97.6 | 69.5 | 43.5 | 38 |
| CCCCCOC(=O)NC\1=N\C(=O)N(\C=C1F)[C@@H]2O[C@H](C)[C@@H](O)[C@H]2O | 94 | 111 | 116 | 125 | 109 | 112 | 120 | 114 | 106 | 101 | 100 | 104 | 89.8 | 95.7 | 109 | 107 | 88.7 | 98.1 | 98.1 | 98.4 | 94.4 | 85.8 | 96.6 | 92.1 | 105 | 95.9 | 106 | 109 | 95.6 | 108 | 96.8 | 93.7 | 86.2 |
| CC(=O)Oc1ccccc1C(=O)O | 104 | 99.4 | 105 | 106 | 102 | 106 | 105 | 97.3 | 88.2 | 99.9 | 96.7 | 110 | 104 | 100 | 120 | 107 | 104 | 120 | 111 | 99.3 | 105 | 95.1 | 102 | 99.4 | 109 | 111 | 108 | 102 | 113 | 108 | 108 | 100 | 111 |
| CC1(C)Cc2c(-c3ccccc3)c(-c3ccc(Cl)cc3)c(CC(=O)O)n2C1 | 116 | 124 | 116 | 129 | 126 | 106 | 124 | 91.9 | 124 | 112 | 95.1 | 116 | 120 | 129 | 122 | 110 | 96.3 | 105 | 92.8 | 110 | 101 | 90.7 | – | – | – | – | – | – | – | – | – | – | – |
| CO[C@H]1/C=C/O[C@@]2(C)Oc3c(C)c(O)c4c(O)c(c5c(nc6cc(C)ccn65)c4c3C2=O)NC(=O)/C(C)=C\C=C\[C@H](C)[C@H](O)[C@@H](C)[C@@H](O)[C@@H](C)[C@H](OC(C)=O)[C@@H]1C | 100 | 97.7 | 100 | 107 | 92.5 | 112 | 113 | 104 | 47.2 | 70 | 1.92 | 106 | 120 | 109 | 125 | 94.9 | 102 | 115 | 111 | 40.5 | 63.1 | 4.47 | 104 | 109 | 98.6 | 109 | 90.2 | 96.8 | 97.1 | 82.1 | 32 | 50.8 | 1.61 |
| C=C(C)[C@@H]1CC[C@]2(C(=O)O)CC[C@]3(C)[C@H](CC[C@@H]4[C@@]5(C)CC[C@H](O)C(C)(C)[C@@H]5CC[C@]43C)[C@@H]12 | – | – | – | – | – | – | – | – | – | – | – | 115 | 116 | 134 | 129 | 140 | 52.4 | 128 | 123 | 42.7 | 112 | 107 | – | – | – | – | – | – | – | – | – | – | – |
| COC1=CC=CC2=C1C(=NC(=N2)C3=CC=CS3)NN4C(=O)\C=C(C)/C4=O | 86.8 | 96.3 | 101 | 87.5 | 72.4 | 69.1 | 42.5 | 29.7 | 11.3 | 2.5 | 2.94 | 90.3 | 99 | 93.5 | 92.2 | 81.9 | 75.5 | 59.5 | 36 | 5.68 | 1.13 | 2.39 | 87.3 | 87.2 | 88.5 | 78.1 | 76.3 | 83.1 | 57.4 | 41.3 | 5.19 | 1.14 | 2.21 |
| CC(=O)O[C@H]1C(=O)[C@]2(C)[C@@H](O)C[C@H]3OC[C@@]3(OC(C)=O)C2[C@H](OC(=O)C4=CC=CC=C4)[C@]5(O)C[C@H](OC(=O)[C@H](O)[C@@H](NC(=O)C6=CC=CC=C6)C7=CC=CC=C7)\C(=C1/C5(C)C)C (stereo partly specified) | 81.5 | 50 | 31.7 | 27.9 | 27.8 | 26.4 | 26.8 | 24.1 | 26.8 | 22.6 | 25.9 | 59.1 | 30.5 | 22.3 | 17 | 16.2 | 14.2 | 16.3 | 15.7 | 15.6 | 15.6 | 13.5 | 81.3 | 48.1 | 35.2 | 26.3 | 24.2 | 23.3 | 22.8 | 22.3 | 22.4 | 23.9 | 22.3 |
